Assay results as given in patent publication US20040235761A1, “Novel virus proliferaton inhibition/virucidal method and novel pyradine nucleotide/pyradine nucleoside analogue” (priority 2001, published 2004).
Like-named read-outs stand apart in the source and are kept apart here.

Legend:
[1] = biological target: Inosine monophosphate dehydrogenase (IMPDH); assay: Inosine monophosphate dehydrogenase (IMPDH) inhibition test; assay type: biochemical; details: IMPDH enzyme solution from MDCK cell homogenate, 37° C., 1 hour; read-out: 50% inhibition concentration
Description: MDCK cells monolayer-cultured on a culture plate were suspended in 0.05 M Tris-HCl (pH 8.0), and the suspension was homogenated with a Downs homogenizer to obtain a cell homogenate. The cell homogenate was centrifuged at 16000×g, and the thus obtained supernatant was used as an IMPDH enzyme solution.
As reaction compositions, 0.1 M Tris-HCl (pH 8.0), 0.1 M KCl, 30 mM EDTA, 5 mM NAD, 5 mg/mL bovine serum albumin, and 0.04 mM [8-^14C]-inosine 5′-monophosphate were used. After completion of reaction at 37° C. for 1 hour, 2 volumes of acetonitrile were added to terminate the reaction, and the reaction product was concentrated. The obtained concentrate was analyzed under the HPLC conditions indicated below. The ratio between the reaction substrate ([^14C]-inosine 5′-monophosphate) and the reaction product ([^14C]-xanthosine 5′-monophosphate) was obtained, and the reaction rate was calculated. Ribavirin monophosphate was used as a control compound.

[2] = test system: bovine diarrhea virus (BVDV) NADL; assay: Anti-BVDV effect (plaque inhibition in MDBK cells); assay type: cell-based; details: Bovine viral diarrhea virus isolates and strains, 72 h, 100 μg/mL test compound, 70 PFU/well, 3 days, read-out: Inhibition rate (plaque inhibition rate)
Description: MDBK cells that had fully grown in a 6-well culture plate were infected with bovine diarrhea virus (BVDV) NADL at 70 PFU/well. After 60 minutes, the infection solution was removed, and a test culture solution (E′-MEM) containing 5% horse serum and 1% agar (SeaPlaque Agar) that contained a 100 μg/mL test compound was added thereto. The mixture was fully solidified and then cultured for 3 days under conditions of 37° C., a humidity of 100% and 5% CO2. After completion of the culture, the test plate was fixed with a 3% formaldehyde solution, and the agar medium was removed with running water, followed by staining with a 1% crystal violet solution, so as to count the number of plaques. The plaque inhibition rate was expressed by the percentage obtained by comparing with a control to which no test compounds were added.

[3] = test system: influenza virus A/PR/8/34; assay: Anti-influenza effect (plaque inhibition in MDCK cells); assay type: cell-based; details: PR/8, MDCK, 72 h, read-out: Inhibition rate (plaque inhibition rate)
[4] = biological target: T1, Influenza virus polymerase (crude enzyme from virus particles) (Influenza A virus, UniProt P03431); assay: Polymerase inhibition test (influenza virus); assay type: biochemical; details: 30° C., 60 minutes, 32P-GTP incorporation, read-out: 50% inhibition concentration
T1 construct: these particles were used as polymerase crude enzymes; from tissue; host or cells: influenza virus particles lysed with Triton N101/LPC (crude enzyme)
Description: Influenza virus particles were treated with a dissolving solution (100 mM Tris-HCl (pH 8), 100 mM KCl, 5 mM MgCl2, 1.5 mM DTT, 5% glycerol, 1.5% Triton N101, 1% LPC), and these particles were used as polymerase crude enzymes. Each of the test compounds with different concentrations was added to a reaction buffer (100 mM Tris-HCl (pH 8.0), 100 mM KCl, 5 mM MgCl2, 1 mM DTT, 0.25% Triton N101, 0.25 mM ApG, 0.1 mM ATP, 0.05 mM CTP, 0.05 mM UTP, 0.0005 mM GTP, ^32P-GTP, crude enzyme), followed by incubation at 30° C. for 60 minutes. Thereafter, 10% trichloroacetic acid (TCA) was added thereto, and the mixture was retained on ice for 60 minutes. Thereafter, it was dropped on a GF/C filter, and the filter was then washed with 5% TCA. The filter was dried, and scintillation cocktail was added thereto. The radioactivity was determined using a liquid scintillation counter. The measurement value was given as a 50% inhibition concentration, providing that a group in which no test compounds were added was defined as 100%.

[5] = biological target: T2, HCV polymerase (NS5B region of hepatitis C virus) (Hepatitis C virus genotype 1a, UniProt P27958); assay: Polymerase inhibition test (hepatitis C virus); assay type: biochemical
T2 construct: The NS5B region of hepatitis C virus was produced in Escherichia coli; made in house; host or cells: Escherichia coli
Description: The NS5B region of hepatitis C virus was produced in Escherichia coli, and it was used as HCV polymerase for the test. The sequence of the 3′-region of HCV was prepared by the in vitro transcription method, and it was used as an RNA template for the test.
Each of the test compounds with different concentrations was added to a reaction buffer (20 mM Tris-HCl (pH 8.0), 0.05 mM MnCl2, 1 mM DTT, 20 units RNase inhibitor, [α-^32P]GTP, 0.05 mM each of ATP, CTP and UTP, and 2 μg/mL RNA template), followed by incubation at 30° C. for 2 hours. Thereafter, 10% TCA was added to terminate the reaction. Thereafter, the reaction solution was dropped on a DE81 filter, and the filter was then washed with 5% TCA. The filter was dried, and scintillation cocktail was added thereto. The radioactivity was determined using a liquid scintillation counter. The measurement value was given as a 50% inhibition concentration, providing that a group in which no test compounds were added was defined as 100%.

[6] = biological target: human RNA polymerase (Hela cell nucleus extract) (Homo sapiens, UniProt P24928+P30876); assay: Human RNA polymerase inhibition test; assay type: biochemical; details: 30° C., 1 hour, read-out: 50% inhibition concentration
Description: A Hela cell nucleus extract (Promega) was used as human RNA polymerase for the test. The pCMP script was cleaved with restriction enzymes and then purified, and it was used as a DNA template for the test.
Each of the test compounds with different concentrations was added to a reaction buffer (Hela cell nucleus extract, 3 mM MgCl2, 0.4 mM each of ATP, UTP and CTP, 0.016 mM GTP, 16 μg/mL DNA template, 0.4 mCi/mL [α-^32P]GTP), followed by incubation at 30° C. for 1 hour. After completion of the reaction, the reaction solution was dropped on a DE81 filter, and the filter was then washed with 5% Na2HPO4 solution 3 times for 30 minutes, and then with distilled water once for 1 minute. The filter was dried, and scintillation cocktail was added thereto. The radioactivity was determined using a liquid scintillation counter. The measurement value was given as a 50% inhibition concentration, providing that a group in which no test compounds were added was defined as 100%.

[7] = NS5B produced in Escherichia coli, 30° C., 2 hours, read-out: 50% inhibition concentration

Question: For `NC(=O)c1ncn([C@@H]2O[C@H](COP(=O)(O)O)[C@@H](O)[C@H]2O)n1` [Control compound, Ribavirin monophosphate, reference compound], which IC50 [1] is on record?
Answer: 1900 nM

Question: For `CC(C)(C)C(=O)SCCOP(=O)(OCCSC(=O)C(C)(C)C)OC[C@H]1O[C@@H](n2cc(Cl)nc(C(N)=O)c2=O)[C@H](O)[C@@H]1O` [Example 4, 2,2-dimethyl-thiopropionic acid S-(2-{[(2R,3S,4R,5R)-5-(3-carbamoyl-5-chloro-2-oxo-2H-pyrazine-1-yl)-3,4-dihydroxy-tetrahydro-furan-2-ylmethoxy]-[2-(2,2-dimethyl-propionylsulfanyl)-ethoxy]-phosphoryloxy]-ethyl) ester], which inhibition at 100 µg/mL [2] is on record?
Answer: 68%

Question: With `CC(C)(C)C(=O)OCOP(=O)(OCOC(=O)C(C)(C)C)OC[C@H]1O[C@@H](n2ccnc(C(N)=O)c2=O)[C@H](O)[C@@H]1O` [Example 6, 2,2-dimethyl-propionic acid[(2R,3S,4R,5R)-5-(3-carbamoyl-2-oxo-2H-pyrazine-1-yl)-3,4-dihydroxy-tetrahydro-furan-2-ylmethoxy]-(2,2-dimethyl-propionyloxymethoxy)-phosphoryloxymethyl ester] as the compound, how does the inhibition at 100 µg/mL [3] read?
Answer: 100%

Question: And the inhibition at 100 µg/mL [2]?
Answer: 57%

Question: `Cc1cn([C@@H]2O[C@H](CO)[C@@H](O)[C@H]2O)c(=O)c(C(N)=O)n1` [Example 11, 4-[(2R,3R,4S,5R)-3,4-dihydroxy-5-(hydroxymethyl)tetrahydro-2-furanyl]-6-methyl-3-oxo-3,4-dihydro-2-pyrazinecarboxamide] was tested. Which inhibition at 100 µg/mL [3] did it give?
Answer: 24%

Question: How did the inhibition at 100 µg/mL [3] turn out when `CC(=O)OC[C@H]1O[C@@H](n2ccnc(C(N)=O)c2=O)[C@H](OC(C)=O)[C@@H]1OC(C)=O` [Example 22, (2R,3R,4R,5R)-4-(acetyloxy)-2-[(acetyloxy)methyl]-5-[3-(aminocarbonyl)-2-oxo-1(2H)-pyrazinyl]tetrahydro-3-furanyl acetate] was run?
Answer: 33%

Question: With `CC(=O)OC[C@H]1O[C@@H](n2cc(F)nc(C(N)=O)c2=O)[C@H](OC(C)=O)[C@@H]1OC(C)=O` [Example 31, (2R,3R,4R, 5R)-4-(acetyloxy)-2-[(acetyloxy)methyl]-5-[3-(aminocarbonyl)-5-fluoro-2-oxo-1(2H)-pyrazinyl] tetrahydro-3-furanyl acetate] as the compound, how does the inhibition at 100 µg/mL [3] read?
Answer: 44%

Question: How did the inhibition at 100 µg/mL [3] turn out when `NC(=O)c1nc(F)cn([C@@H]2O[C@H](CO)[C@@H](O)[C@H]2O)c1=O` [Example 32, 4-[(2R,3R,4S,5R)-3,4-dihydroxy-5-(hydroxymethyl)tetrahydro-2-furanyl]-6-fluoro-3-oxo-3,4-dihydro-2-pyrazinecarboxamide] was run?
Answer: 100%

Question: And the inhibition at 100 µg/mL [2]?
Answer: 100%

Question: With `NC(=O)c1nc(F)cn([C@@H]2O[C@H](COP(=O)(O)O)[C@@H](O)[C@H]2O)c1=O` [Example 37, [(2R,3S,4R,5R)-5-[3-(aminocarbonyl)-5-fluoro-2-oxo-1(2H)-pyrazinyl]-3,4-dihydroxytetrahydro-2-furanyl]methyl phosphate] as the compound, how does the IC50 [1] read?
Answer: 740000 nM

Question: With `NC(=O)c1nc(Cl)cn([C@@H]2O[C@H](CO)[C@@H](O)[C@H]2O)c1=O` [Reference Example 7, 6-chloro-4-[(2R,3R,4S,5R)-3,4-dihydroxy-5-(hydroxymethyl)tetrahydro-2-furanyl]-3-oxo-3,4-dihydro-2-pyrazinecarboxamide] as the compound, how does the inhibition at 100 µg/mL [3] read?
Answer: 42%

Question: How did the inhibition at 100 µg/mL [3] turn out when `CC(=O)O[C@@H]1[C@H](OC(C)=O)[C@@H](CO)O[C@H]1n1cc(F)nc(C(N)=O)c1=O` [Reference Example 12, (2R,3R,4R,5R)-4-(acetyloxy)-2-[3-(aminocarbonyl)-5-fluoro-2-oxo-1(2H)-pyrazinyl]-5-(hydroxymethyl)tetrahydro-3-furanyl acetate] was run?
Answer: 78%

Question: What does the source list for `NC(=O)c1nc(F)cn([C@@H]2O[C@H](COP(=O)(O)OP(=O)(O)OP(=O)(O)O)[C@@H](O)[C@H]2O)c1=O` [Reference Example 16, [[2R,3S,4R,5R]-5-[3-(aminocarbonyl)-5-fluoro-2-oxo-1(2H)-pyrazinyl]-3,4-dihydroxytetrahydro-2-furanyl]methyl triphosphate]?
Answer: IC50 [4]: 140 nM; IC50 [5, 7]: 750 nM

Question: Which IC50 [4] does the source give for `NC(=O)c1nc(Cl)cn([C@@H]2O[C@H](COP(=O)(O)OP(=O)(O)OP(=O)(O)O)[C@@H](O)[C@H]2O)c1=O` [Reference Example 17, {(2R,3S,4R,5R)-5-[3-(aminocarbonyl)-5-chloro-2-oxo-1(2H)-pyrazinyl]-3,4-dihydroxytetrahydro-2-furanyl}methyl triphosphate] here?
Answer: 330 nM

Question: And the IC50 [5, 7]?
Answer: 2700 nM

Question: What does the source list for `NC(=O)c1nccn([C@@H]2O[C@H](COP(=O)(O)OP(=O)(O)OP(=O)(O)O)[C@@H](O)[C@H]2O)c1=O` [Reference Example 22, {(2R,3S,4R,5R)-5-[3-(aminocarbonyl)-2-oxo-1(2H)-pyrazinyl]-3,4-dihydroxytetrahydro-2-furanyl} methyl triphosphate]?
Answer: IC50 [4]: 76 nM; IC50 [5, 7]: 88 nM; IC50 [6]: > 200000 nM

Question: For `Cc1cn([C@@H]2O[C@H](COP(=O)(O)OP(=O)(O)OP(=O)(O)O)[C@@H](O)[C@H]2O)c(=O)c(C(N)=O)n1` [Reference Example 23, {(2R,3S,4R,5R)-5-[3-(aminocarbonyl)-5-methyl-2-oxo-1(2H)-pyrazinyl]-3,4-dihydroxytetrahydro-2-furanyl}methyl triphosphate], which IC50 [4] is on record?
Answer: 250 nM

Question: And the IC50 [5]?
Answer: 2200 nM

Question: Which results are given for `NC(=O)c1nccn([C@@H]2O[C@H](COP(=O)(O)OP(=O)(O)OP(=O)(O)O)C[C@H]2O)c1=O` [Reference Example 25, {(2S,4R,5R)-5-[3-(aminocarbonyl)-2-oxo-1(2H)-pyrazinyl]-4-hydroxytetrahydro-2-furanyl} methyl triphosphate]?
Answer: IC50 [4]: 28000 nM; IC50 [5, 7]: 1600 nM; IC50 [6]: > 200000 nM

Question: For `NC(=O)c1nccn([C@@H]2O[C@H](COP(=O)(O)O)[C@@H](O)[C@H]2O)c1=O` [Reference Example 30, {(2R,3S,4R,5R)-5-[3-(aminocarbonyl)-2-oxo-1(2H)-pyrazinyl]-3,4-dihydroxytetrahydro-2-furanyl}methyl phosphate], which IC50 [1] is on record?
Answer: 980000 nM
